# Measurements reported in patent publication US20070066686A1, “Infusion preparation containing (2r)-2-propyloctanoic acid as at the active ingredient” (ONO PHARMACEUTICAL CO., LTD., priority 2003, published 2007).
# Tested on: dog
# Test: single intravenous administration toxicity using a dog
# Format: in vivo
# Conditions: dose of 100 mg/kg
# Text: Toxicity of (2R)-2-propyloctanoic acid or a salt thereof is very low, and it is considered to be sufficiently safe for the use as a pharmaceutical drug.
smiles,measurement,value
CCCCCC[C@@H](CCC)C(=O)O [(2R)-2-propyloctanoic acid],death after single intravenous administration,did not result in death
